According to ChEMBL document CHEMBL1201862, “PubChem BioAssay data set” (2004):
Active and inactive are the calls of the source.

Key:
[1] = microbe, parasite or virus in culture; format: functional; settings: Mycobacterium tuberculosis
[2] = viability of HCT116 lacking mutant beta-catenin – cell-based, human colon tumor, dose response (AID 1045); format: functional;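 further: HCT116 colon tumor cells with beta catenin knocked out; cells exposed to compound for 60 hours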
[3] = viability of PTEN-deleted HCT116 cells – cell-based, HCT116 PTEN knockout, dose response (AID 1047); format: functional;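 further: HCT116 colon tumor cells with PTEN knocked out; cells exposed to compound for 60 hours before readout; potency for loss of cell viability measured by luminescence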
Protein RecA = target: T1, Protein RecA (Mycobacterium tuberculosis, UniProt P9WHJ3); assay: Fluorescence Cell-Free Homogeneous Dose Retest to Identify Inhibitors of RecA-Intein Splicing Activity. [Related pubchem assays (depositor defined):AID2097, AID2223, AID489010, AID492950]; format: functional
T1 sequence (P9WHJ3 whole entry): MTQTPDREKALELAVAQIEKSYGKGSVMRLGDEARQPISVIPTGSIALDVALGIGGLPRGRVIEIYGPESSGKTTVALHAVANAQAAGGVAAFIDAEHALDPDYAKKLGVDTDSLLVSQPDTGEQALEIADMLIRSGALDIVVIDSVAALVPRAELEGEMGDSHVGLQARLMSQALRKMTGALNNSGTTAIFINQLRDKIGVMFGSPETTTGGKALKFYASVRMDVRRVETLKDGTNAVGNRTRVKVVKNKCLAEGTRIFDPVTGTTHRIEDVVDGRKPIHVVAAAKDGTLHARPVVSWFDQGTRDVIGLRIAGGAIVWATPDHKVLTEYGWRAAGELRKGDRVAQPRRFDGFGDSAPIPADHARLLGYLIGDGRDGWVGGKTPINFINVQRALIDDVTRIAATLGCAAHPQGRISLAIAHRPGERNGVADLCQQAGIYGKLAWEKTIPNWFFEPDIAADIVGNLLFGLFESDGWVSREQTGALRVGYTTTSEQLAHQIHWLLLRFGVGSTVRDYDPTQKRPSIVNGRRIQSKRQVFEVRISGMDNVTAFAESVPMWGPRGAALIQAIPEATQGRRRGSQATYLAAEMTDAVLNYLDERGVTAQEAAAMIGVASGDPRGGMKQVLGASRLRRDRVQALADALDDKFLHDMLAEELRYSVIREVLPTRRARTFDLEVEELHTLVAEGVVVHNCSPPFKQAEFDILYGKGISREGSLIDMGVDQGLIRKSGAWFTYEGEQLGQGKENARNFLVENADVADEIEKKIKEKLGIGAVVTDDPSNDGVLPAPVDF

Hexokinase HKDC1 = target: T2, Hexokinase HKDC1 (Homo sapiens, UniProt Q2TB90); assay: inhibition of HKDC1 glucose phosphorylation – biochemical, W721R variant, dose response (AID 504729); format: functional
T2 sequence (Q2TB90 whole entry): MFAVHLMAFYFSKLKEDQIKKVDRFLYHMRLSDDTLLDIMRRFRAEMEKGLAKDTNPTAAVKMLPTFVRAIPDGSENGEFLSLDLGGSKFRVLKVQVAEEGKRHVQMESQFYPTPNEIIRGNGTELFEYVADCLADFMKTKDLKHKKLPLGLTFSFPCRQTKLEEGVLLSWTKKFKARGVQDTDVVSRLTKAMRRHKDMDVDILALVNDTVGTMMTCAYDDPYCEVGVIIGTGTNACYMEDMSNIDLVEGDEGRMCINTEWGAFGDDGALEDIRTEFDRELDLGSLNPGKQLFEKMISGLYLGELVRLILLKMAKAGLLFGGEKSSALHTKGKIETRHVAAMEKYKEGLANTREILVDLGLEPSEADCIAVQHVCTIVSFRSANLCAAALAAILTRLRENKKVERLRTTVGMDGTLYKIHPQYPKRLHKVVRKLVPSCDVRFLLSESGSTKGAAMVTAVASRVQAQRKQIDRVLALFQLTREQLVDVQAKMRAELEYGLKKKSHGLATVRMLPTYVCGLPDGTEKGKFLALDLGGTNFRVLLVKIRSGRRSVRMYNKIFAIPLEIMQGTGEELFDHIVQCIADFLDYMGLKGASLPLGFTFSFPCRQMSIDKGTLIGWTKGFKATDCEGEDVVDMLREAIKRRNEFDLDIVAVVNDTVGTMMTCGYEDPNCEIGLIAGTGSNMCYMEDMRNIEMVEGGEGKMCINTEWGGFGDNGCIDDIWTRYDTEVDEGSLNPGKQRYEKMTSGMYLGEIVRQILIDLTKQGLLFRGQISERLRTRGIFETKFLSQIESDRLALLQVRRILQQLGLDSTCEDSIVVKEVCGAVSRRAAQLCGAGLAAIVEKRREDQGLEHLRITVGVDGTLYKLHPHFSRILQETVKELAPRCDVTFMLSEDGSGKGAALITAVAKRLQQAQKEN

[4] = target: T3, Replicative DNA helicase DnaB (Mycobacterium tuberculosis, UniProt P9WMR3); assay: DnaB intein splicing inhibitors, dose response, biochemical, cell-free fluorescence (AID 449749); format: functional
T3 sequence (P9WMR3 whole entry): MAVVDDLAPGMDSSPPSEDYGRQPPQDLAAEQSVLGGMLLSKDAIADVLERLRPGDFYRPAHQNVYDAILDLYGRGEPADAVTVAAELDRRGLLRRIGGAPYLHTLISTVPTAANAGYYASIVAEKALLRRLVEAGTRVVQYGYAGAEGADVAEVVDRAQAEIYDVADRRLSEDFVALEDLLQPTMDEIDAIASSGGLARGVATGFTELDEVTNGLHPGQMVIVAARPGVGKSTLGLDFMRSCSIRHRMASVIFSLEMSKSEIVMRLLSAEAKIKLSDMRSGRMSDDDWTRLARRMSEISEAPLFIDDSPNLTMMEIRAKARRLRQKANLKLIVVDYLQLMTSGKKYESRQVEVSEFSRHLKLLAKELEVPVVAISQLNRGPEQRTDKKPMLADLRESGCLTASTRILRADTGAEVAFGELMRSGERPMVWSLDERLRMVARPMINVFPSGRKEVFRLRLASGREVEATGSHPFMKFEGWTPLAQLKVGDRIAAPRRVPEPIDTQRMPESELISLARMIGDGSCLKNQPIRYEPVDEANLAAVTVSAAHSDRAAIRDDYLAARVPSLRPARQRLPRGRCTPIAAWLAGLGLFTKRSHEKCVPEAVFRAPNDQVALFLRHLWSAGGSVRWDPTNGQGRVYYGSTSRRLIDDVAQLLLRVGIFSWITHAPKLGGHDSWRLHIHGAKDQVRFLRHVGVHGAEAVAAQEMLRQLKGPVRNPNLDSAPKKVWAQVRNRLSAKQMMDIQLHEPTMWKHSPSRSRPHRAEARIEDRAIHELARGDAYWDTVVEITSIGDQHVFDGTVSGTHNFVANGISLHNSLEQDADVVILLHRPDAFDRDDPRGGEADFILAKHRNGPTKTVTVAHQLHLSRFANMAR

HEK293 [5] = assay: cells; format: functional, cell-based; settings: Homo sapiens
[6] = reduction of Shn3 3'UTR-driven luciferase in osteoblasts – cell-based, Clone20 osteoblasts, firefly luciferase, cherry-picked, dose response (AID 624132); format: functional;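 further: firefly luciferase luminescence from reporter carrying the Shn3 3'UTR in osteoblasts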
[7] = target: Nucleotide-binding oligomerization domain-containing protein 2 (Homo sapiens, UniProt Q9HC29); assay: inhibition of NOD2-driven NF-kB reporter – cell-based, luminescence, uHTS, HEK293 (AID 1566); format: functional
Sequence of Nucleotide-binding oligomerization domain-containing protein 2 (Q9HC29 whole entry, the tested form may be a part): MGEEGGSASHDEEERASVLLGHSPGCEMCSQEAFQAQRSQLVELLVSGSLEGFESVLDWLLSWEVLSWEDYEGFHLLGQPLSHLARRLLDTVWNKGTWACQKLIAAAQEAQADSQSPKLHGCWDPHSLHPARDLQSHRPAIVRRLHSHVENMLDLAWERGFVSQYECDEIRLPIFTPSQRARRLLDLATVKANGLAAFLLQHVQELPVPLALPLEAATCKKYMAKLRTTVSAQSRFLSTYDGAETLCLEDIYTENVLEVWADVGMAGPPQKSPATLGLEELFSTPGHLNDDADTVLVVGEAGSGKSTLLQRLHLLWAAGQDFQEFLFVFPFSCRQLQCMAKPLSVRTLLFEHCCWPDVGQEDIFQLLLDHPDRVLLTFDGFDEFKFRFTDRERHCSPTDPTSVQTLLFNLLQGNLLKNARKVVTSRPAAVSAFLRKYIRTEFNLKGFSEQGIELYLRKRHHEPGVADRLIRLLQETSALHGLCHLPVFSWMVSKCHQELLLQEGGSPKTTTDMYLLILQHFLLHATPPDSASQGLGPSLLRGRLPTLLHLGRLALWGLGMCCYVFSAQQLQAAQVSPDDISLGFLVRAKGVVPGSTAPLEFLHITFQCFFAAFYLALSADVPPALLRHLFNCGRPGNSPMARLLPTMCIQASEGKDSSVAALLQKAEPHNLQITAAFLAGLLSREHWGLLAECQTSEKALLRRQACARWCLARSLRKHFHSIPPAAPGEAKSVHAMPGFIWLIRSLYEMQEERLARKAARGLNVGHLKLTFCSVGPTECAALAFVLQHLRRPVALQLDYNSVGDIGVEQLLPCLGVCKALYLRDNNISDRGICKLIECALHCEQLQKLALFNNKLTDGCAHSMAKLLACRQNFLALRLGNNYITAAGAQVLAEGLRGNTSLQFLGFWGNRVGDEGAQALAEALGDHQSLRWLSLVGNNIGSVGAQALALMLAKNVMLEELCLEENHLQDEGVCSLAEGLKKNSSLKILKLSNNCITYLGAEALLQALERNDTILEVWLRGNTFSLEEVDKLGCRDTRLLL

[8] = non-specific 3'UTR reporter inhibition in Clone20-Shn3RL – cell-based, Renilla luciferase, cherry-picked, counter-screen for Shn3 inhibitor project, dose response (AID 624133); format: functional
HEK293 [9] = assay: cells; format: functional, cell-based; settings: Homo sapiens; remark: listed apart in the source
HEK293 [10] = assay: cells; format: functional, cell-based; settings: Homo sapiens; remark: listed apart in the source
HEK293 [11] = assay: inhibition of NOD1-driven NF-kB reporter – cell-based, luminescence, uHTS, primary screen (AID 1578); format: functional; settings: Homo sapiens
HEK293 [12] = assay: NOD2 signaling inhibitors in MDP-stimulated cells, cell-based, uHTS, luminescence (AID 2001); format: functional; settings: Homo sapiens
[13] = Dd2 malaria parasite growth inhibition potency – SYBR Green, dry powder samples, dose response (AID 1159566); format: functional, cell-based;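 further: potency for growth inhibition with lower SYBR green DNA signal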
[14] = P. falciparum Dd2 growth inhibitors, dose response, SYBR Green, cherry-picked samples (AID 1159567); format: functional, cell-based
[15] = growth inhibition of yeast DHODH-expressing 3D7 parasites – SYBR Green, dry powder samples, dose response (AID 1159570); format: functional, cell-based;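 further: parasite growth measured after 72 hours of compound exposure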
[16] = growth inhibition of PfATP4-mutant resistant parasites – NITD609-resistant line, SYBR Green, dry powder, dose response (AID 1159571); format: functional, cell-based;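 further: parasites synchronized at ring stage by sorbitol before testing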
[17] = OVCAR8 cell viability loss – plate reader, dry powder samples, PAX8 project, dose response (AID 743197); format: functional, cell-based; settings: OVCAR-8
[18] = blockers of HIV-1 envelope-mediated cell-cell fusion – cherry-pick, dose response (AID 652057); format: functional, cell-based
[19] = IGROV1 cell killing – plate reader, dry powder samples, PAX8 inhibitor project, dose response (AID 743043); format: functional, cell-based; settings: IGROV-1
[20] = HIV-1 AD8 envelope cell-cell fusion blockers – cherry-pick, dose response (AID 652062); format: functional, cell-based;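 further: luciferase signal from cell-cell fusion driven by HIV-1 clade B AD8 Env; potency is for inhibitors of fusion seen as a drop in luminescence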
[21] = OVCAR-3 cell viability loss – plate reader, dry powder samples, PAX8 inhibitor project, dose response (AID 743044); format: functional, cell-based
Paired box protein Pax-8 = Paired box protein Pax-8 (Homo sapiens, UniProt Q06710); assay: PAX8 transcriptional activity inhibition in RMG-I – RMG-I cells, luciferase, cherry-pick, dose response (AID 687027); format: functional, cell-based;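 further: luciferase reporter driven by Pax8 target thyroperoxidase promoter measured by SteadyGlo luminescence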
Sequence of Paired box protein Pax-8 (Q06710 whole entry): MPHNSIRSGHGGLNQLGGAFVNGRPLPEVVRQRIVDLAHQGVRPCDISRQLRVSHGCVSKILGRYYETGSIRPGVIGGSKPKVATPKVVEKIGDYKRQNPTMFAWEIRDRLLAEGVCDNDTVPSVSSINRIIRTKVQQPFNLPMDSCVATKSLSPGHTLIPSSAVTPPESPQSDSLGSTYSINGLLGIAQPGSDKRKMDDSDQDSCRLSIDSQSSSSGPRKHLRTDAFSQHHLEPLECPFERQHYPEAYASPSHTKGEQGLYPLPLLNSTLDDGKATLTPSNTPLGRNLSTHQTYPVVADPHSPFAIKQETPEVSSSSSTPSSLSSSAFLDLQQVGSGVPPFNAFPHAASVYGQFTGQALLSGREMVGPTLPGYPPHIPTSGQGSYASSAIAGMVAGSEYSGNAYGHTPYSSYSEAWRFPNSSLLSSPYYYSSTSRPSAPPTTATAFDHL

In the case of `O=C1c2ccccc2-c2onc3ccc(Oc4ccccc4)c1c23`, the CC50 [1] is reported as 9.25 µM (active), the EC50 [2] is reported as 6.7 µM (active) and the EC50 [3] is reported as 6.21 µM (active). For the same compound, the EC50 (Protein RecA) was 0.452 µM (active), the IC50 (Hexokinase HKDC1) was 70.7 µM (inactive) and the AC50 [4] was 1.38 µM (active).

For `COc1cc(C2c3c([nH]c(=O)[nH]c3=O)Nc3ccc4ccccc4c32)cc(OC)c1OC` (stereo not given), the IC50 (Hexokinase HKDC1) was 15.2 µM (active).

In the case of `COc1cc(OC)c(OC)cc1/C=C1\CC(C)C/C(=C\c2cc(OC)c(OC)cc2OC)C1=O` (stereo not given), the IC50 (HEK293 [5]) is reported as 15.7 µM (active), the AC50 [6] is reported as 3.22 µM (active) and the EC50 [7] is reported as 7.31 µM (active). The AC50 [8] was 5.08 µM (active), the IC50 (HEK293 [9]) was > 20 µM (inactive) and the IC50 (HEK293 [10]) was 5.7 µM (active). For the same compound, the EC50 (HEK293 [11]) was 6.38 µM (active) and the IC50 (HEK293 [12]) was 6.92 µM (active).

For `COc1ccc(S(=O)(=O)Nc2cccc3c2O[C@H](CN(C)Cc2ccc(-c4ccccc4)cc2)[C@@H](C)CN([C@H](C)CO)C3=O)cc1`, the AC50 [13] was 0.587 µM (active), the AC50 [14] was 0.955 µM (active) and the AC50 [15] was 1.02 µM (active). The AC50 [16] was 0.696 µM (active).

For `Cc1noc(C)c1S(=O)(=O)Nc1ccc2c(c1)CC(=O)N([C@@H](C)CO)C[C@@H](C)[C@H](CN(C)Cc1ccc(Cl)c(Cl)c1)O2`, the AC50 [17] was 21.1 µM (active), the AC50 [18] was 10.9 µM (active) and the AC50 [19] was 12.6 µM (active). The AC50 [20] was 1.42 µM (active), the AC50 [21] was 41.1 µM (active) and the AC50 (Paired box protein Pax-8) was 1.19 µM (active).

For `C[C@H](CO)N1C[C@H](C)[C@@H](CN(C)Cc2ccc(-c3ccccc3)cc2)Oc2ccc(NS(=O)(=O)c3ccc(F)cc3)cc2CC1=O`, the AC50 [17] was 55.8 µM (active), the AC50 [19] was 27.8 µM (active) and the AC50 [21] was 29.7 µM (active). For the same compound, the AC50 (Paired box protein Pax-8) was 8.82 µM (active).

For `OC[C@H]1[C@H](c2ccccc2)C2(CN(Cc3ccccc3F)C2)N1Cc1ccccc1F`, the AC50 [13] was 0.542 µM (active), the AC50 [15] was 1.1 µM (active) and the AC50 [16] was 1.15 µM (active).

For `C[C@H](CO)N1C[C@H](C)[C@@H](CN(C)S(=O)(=O)c2ccc(C(F)(F)F)cc2)OCc2ccccc2-c2c(n(C)c3ccccc23)C1=O`, the AC50 [13] was 0.599 µM (active), the AC50 [14] was 0.95 µM (active) and the AC50 [15] was 0.777 µM (active). For the same compound, the AC50 [16] was 0.885 µM (active).

With `CCCC(=O)N1CC2(C1)CN(S(=O)(=O)c1ccc(C)cc1)[C@@H](CO)c1[nH]c3cc(OC)ccc3c12` the AC50 [13] was 1.65 µM (active), the AC50 [14] was 2.14 µM (active) and the AC50 [15] was 3.18 µM (active). For the same compound, the AC50 [16] was 1.67 µM (active).
